This is an account of results in patent US20120309716A1, “Motor Function Improver” (Kao Corporation, priority 2010, published 2012).

Assay [1] deals with mice. In words: Swimming endurance (limit swimming time in flowing water pool). To be noted: 0.25% sphingomyelin diet and exercise, five weeks after beginning of administration, flow rate 7 L/min. It is filed as in vivo, mouse. An excerpt:
(§1) After preliminary rearing for one week, nine-week old BALE/c male mice (Charles River Laboratories Japan Inc.) were classified into three groups (a Cont group, an Ex group, and an SPM group) (eight mice in each group) such that each group had the same body weight and swimming endurance (determined by measuring a limit swimming time by using a flowing water pool for mice (Kyodai Matsumoto type flowing water tank for measuring an amount of exercise: length×width×depth=90×45×45 cm, water depth: 38 cm, water temperature: 34° C. (Matsumoto, J Appl Physiol. 81: 1843-1849, 1996)) by the below-mentioned method).
After grouping, the mice of the Cont group and the Ex group were fed with a control feed (10% lipid, 20% casein, 55.5% potato starch, 8.1% cellulose, 0.2% methionine, 2.2% vitamin (product name: Vitamin mix AIN-76, Oriental Bioservice, Inc.), and 4% mineral (product name: Mineral mix AIN-76, Oriental Bioservice, Inc.)), and the mice of the SPM group were fed with a test feed containing the sphingomyelin prepared in Production Example 1 (10% lipid, 20% casein, 55.25% potato starch, 8.1% cellulose, 0.2% methionine, 2.2% vitamin, 4% mineral, and 0.25% sphingomyelin) each for 13 weeks.
During the feeding period, the limit swimming time was measured for the mice of the Ex group and the SPM group using the flowing water pool for mice once a week. […]

A further assay relates to PGC-1α. Put plainly: Expression of gastrocnemius muscle mitochondrial function-related gene (quantitative PCR). As to conditions: mouse gastrocnemius muscle after 13 weeks of rearing, 0.25% sphingomyelin test feed; control group 1.17 ± 0.10; p < 0.05. It is filed as in vivo. An excerpt: (§2) After that, the mice were fed with a control feed (10% lipid, 20% casein, 55.5% potato starch, 8.1% cellulose, 0.2% methionine, 2.2% vitamin (product name: Vitamin mix AIN-76, Oriental Bioservice, Inc.), and 4% mineral (product name: Mineral mix AIN-76, Oriental Bioservice, Inc.)) or a test feed containing the sphingomyelin (10% lipid, 20% casein, […], 8.1% cellulose, 0.2% methionine, 2.2% vitamin, 4% mineral, and 0.25% sphingomyelin) each for nine weeks, and a respiratory gas analysis was carried out at the tenth week.
After 13 weeks of rearing, the gastrocnemius muscle of a mouse of each group was collected, and RNA samples were obtained using RNeasy Fibrous Tissue Mini Kit (Qiagen). Each RNA sample was quantified, and a reverse transcription reaction was carried out in a reaction solution (1×PCR buffer II (Applied Biosystems), 5 mM MgCl2, 1 mM dNTP mix, 2.5 μM Oligo d [T]18 (New England Biolabs) and 1 U/ml RNase inhibitor (TAKARA BIO INC.) for 125 ng of RNA per reaction, to thereby obtain cDNA. The reaction was carried out under conditions of 42° C. and 10 min, 52° C. and 30 min, and 99° C. and 5 min.
Quantitative PCR was carried out using the thus obtained cDNA as a template by ABI PRISM 7700 Sequence Detector (Applied Biosystems) The results were corrected based on the expression amount of 36B4 mRNA and represented as relative mRNA expression amounts. […]

The test system of a further assay is isolated soleus muscle. In words: Suppression of muscle strength deterioration after tail suspension treatment (isolated soleus muscle). It is filed as in vivo, mouse. To be noted: mice, 0.25% sphingomyelin diet for two weeks, then seven days of tail suspension; SPM group vs Cont group. An excerpt:
After preliminary rearing for one week, BALB/c male mice (nine-week old) were classified into three groups (a Normal group, a Cont group, and an SPM group) based on their weights (n=8 in each group). After grouping, the mice of the Normal group and the Cont group were fed with a control feed (10% lipid, 20% casein, 55.5% potato starch, 8.1% cellulose, 0.2% methionine, 2.2% vitamin, and 4% mineral), and the mice of the SPM group were fed with a test feed containing the sphingomyelin prepared in Production Example 1 (10% lipid, 20% casein, 55.25% potato starch, 8.1% cellulose, 0.2% methionine, 2.2% vitamin, 4% mineral, and 0.25% sphingomyelin) each for two weeks. The mice were fed with the test feed for two weeks, and the mice of the Cont group and the SPM group were subject to a tail suspension treatment to exclude a gravity load on their hindlimb muscles (such as soleus muscle). […] The mice of the Normal group were not subjected to the tail suspension treatment. After seven days of the tail suspension treatment, the mice were subjected to anatomy, and muscle strength of the isolated soleus muscle was measured. The muscle strength of the isolated muscle was measured in the same way as in Test Example 1.

The test system of assay [2] is mice. Put plainly: Respiratory gas analysis (energy consumption and lipid combustion). It is filed as in vivo, mouse. As to conditions: average in 24 hours after nine weeks of rearing, 0.25% sphingomyelin test feed.
Description: After preliminary rearing for one week, nine-week old BALB/c mice (male: Oriental Bioservice, Inc.) were classified into two groups (eight mice in each group) such that each group had the same body weight.
as §2
The mice were transferred to a chamber for respiratory gas analysis and habituated to the environment for 48 hours, and oxygen consumption level and respiratory quotient of each mouse were measured over 24 hours using Arco-2000 system (ARCOSYSTEM Inc.). […] From the oxygen consumption level and respiratory quotient, the lipid combustion level was calculated by an equation of Peronnet (Peronnet F, and Massicotte D (1991) Can J Sport Sci 16:23-29.).

The subject of assay [3] is isolated soleus muscle and extensor digitorum longus muscle. In words: Muscle strength of isolated soleus and extensor digitorum longus muscle after 13 weeks of rearing with exercise. To be noted: mice, 0.25% sphingomyelin diet and exercise, electrical stimulation 40 Hz, 330 ms, 10V. It is filed as in vivo, mouse.
Description: as §1, with “method). […] After 13 weeks of rearing, the mice were subjected to anatomy, muscle strength of isolated soleus muscle and extensor digitorum longus muscle was measured. Muscle strength of the isolated muscle was measured according to a method by Cannon et al. (Biomed Sci Instrum, 2005). […] Electrical stimulation of 40 Hz, 330 ms, and 10V was applied by using two platinum electrodes, and a signal obtained from the transducer was determined as muscle strength (g/mg muscle).” for “method).”

On to sphingomyelin, for which the “swimming endurance (limit swimming time)” value with mice [1] is “significant improvement in endurance”. Also, the “PGC-1α relative mRNA expression amount (corrected based on 36B4 mRNA)” value in the assay with PGC-1α is recorded as 1.50 ± 0.15. In the assay with isolated soleus muscle, the “muscle strength of the isolated soleus muscle” value was “significantly higher value”. Also, the Lipid combustion level with mice [2] (calculated by equation of Peronnet, control group 5.4 ± 0.7, p < 0.05) is given as 7.5 ± 0.7 mg/kg/min. Besides, the Oxygen consumption level with mice [2] (control group 55.0 ± 1.0, p < 0.05) was determined as 58.2 ± 0.8 mL/min/kg. In assay [3], the “muscle strength of the extensor digitorum longus muscle” value was “significantly higher values” and the “muscle strength of the soleus muscle” value is recorded as “significantly higher values”.
